Holding throughout (assay): NCI-60 cell line screen, 48 h
Test [1] concerns Malme-3M.
The subject of test [2] is UACC-62.
Test [3] deals with 786-0.
In test [4] the test system is SF-539.
In test [5] the test system is CCRF-CEM.
For test [6], the system named is NCI-H23.
Test [7] has as its system HCT-15.
Test [8] deals with DU-145.
Test [9] relates to MOLT-4.
In test [10] the test system is U-251.
The subject of test [11] is RXF 393.
Test [12] deals with LOX IMVI.
For test [13], the system named is HCT-116.
Test [14] concerns CAKI-1.
In test [15] the test system is IGROV-1.
The test system of test [16] is K562.
The subject of test [17] is BT-549.
The test system of test [18] is OVCAR-4.
Test [19] concerns SR.
In test [20] the test system is RPMI-8226.

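Results reflect a 48-hour exposure of cells in 96-well plates to compound at five concentrations. GI50: concentration for 50% inhibition of growth.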 Activity calls are given as the source filed them. Cut-off read from the data, not from the text of the source: active = GI50 up to about 1.1 µM and inactive = higher.

For the compound `O=C(OCc1ccccc1[N+](=O)[O-])N1c2ccccc2[C@@]23O[C@]24CCC[C@H]3C#C/C=C\C#C[C@H]14`, the GI50 is 8.38 µM (inactive) in test [1]; 22.7 µM (inactive) in test [2]; 15.7 µM (inactive) in test [3]; 9.95 µM (inactive) in test [4]; 4.21 µM (inactive) in test [5]; 18.7 µM (inactive) in [6]. The GI50 in test [7] is 17 µM; in test [8], > 100 µM (inactive); in [9], 1.46 µM (inactive); in test [10], 11 µM (inactive); in test [11], > 100 µM (inactive); in [12], 6.73 µM (inactive). Besides, the GI50 in [13] is 41.5 µM (inactive); in test [14], 7.36 µM (inactive); in test [15] it was > 100 µM (inactive); in [16], 5.83 µM (inactive); in test [17] it was 49.5 µM (inactive); in test [18], > 100 µM (inactive).

`COC1=CC2(CC(OC)=C1OC)OC21COc2ccccc2C1=O` (centres undefined): the GI50 was > 100 µM (inactive) in test [1]; 60.1 µM (inactive) in [2]; 37.7 µM (inactive) in [3]; > 100 µM (inactive) in test [4]; 32.3 µM (inactive) in [5]; 58.5 µM (inactive) in test [6]. Also, the GI50 in test [7] is 65.8 µM; in [9], 23 µM (inactive); in [19], 24.9 µM (inactive); in test [10] it was 73.8 µM (inactive); in [11] it was 46 µM (inactive); in [12], 50.5 µM (inactive). In addition, the GI50 was 50.5 µM (inactive) in test [13]; > 100 µM (inactive) in test [14]; > 100 µM (inactive) in [15]; 51.5 µM (inactive) in test [20]; 56.2 µM (inactive) in test [16]; > 100 µM (inactive) in test [17]. Moreover, the GI50 in test [18] is 84.5 µM (inactive).

In the case of `COc1ccc2[nH]c3c([N+](=O)[O-])ccc(Cl)c3c(=O)c2c1`, the GI50 in test [1] is 19.6 µM (inactive); in test [2] it was 18 µM (inactive); in test [3], 16.7 µM (inactive); in test [4] it was 17.9 µM (inactive); in [5] it was 2.12 µM (inactive); in test [6], 24.8 µM (inactive). In addition, the GI50 in [7] was 14.2 µM; in test [8], 47.3 µM (inactive); in test [9], 3.52 µM (inactive); in test [10], 25.4 µM (inactive); in test [11] it was 13.6 µM (inactive); in test [12], 7.71 µM (inactive). Further, the GI50 in test [13] is 13.7 µM (inactive); in test [14] it was 23.2 µM (inactive); in test [15], 13.1 µM (inactive); in test [20], 17.4 µM (inactive); in test [16], 2.99 µM (inactive); in test [17], 17.2 µM (inactive). In test [18], the GI50 is 15.4 µM (inactive).

With `COc1ccc(OC)c2c(C)ccnc12`, the GI50 in test [1] was 12.2 µM (inactive); in [2], 25.3 µM (inactive); in [3], 22.3 µM (inactive); in test [5] it was 5.25 µM (inactive); in test [6] it was 27.2 µM (inactive); in test [7], 4.25 µM. Moreover, the GI50 in [8] was 24.1 µM (inactive); in [10], 16.4 µM (inactive); in test [11], 16.1 µM (inactive); in test [12] it was 5.28 µM (inactive); in test [13], 6.31 µM (inactive); in test [14], 28.9 µM (inactive). The GI50 in test [15] was 10.7 µM (inactive); in [20], 32.9 µM (inactive); in test [16], > 37.7 µM (inactive); in test [17] it was 27.4 µM (inactive); in test [18], 9.77 µM (inactive).

Turning to `CNC(=O)CCCN(C)C(=O)CCCCC(=O)N(C)C`, the GI50 in test [1] was 33.5 µM (inactive); in test [2] it was > 57.4 µM (inactive); in [3] it was > 55.3 µM (inactive); in test [4], > 59.8 µM (inactive); in [5] it was 40.5 µM (inactive); in [6], > 60.1 µM (inactive). In addition, the GI50 in test [7] was > 60.4 µM; in test [8], > 58.5 µM (inactive); in test [9], 41.6 µM (inactive); in [10] it was > 58.2 µM (inactive); in test [11], > 100 µM (inactive); in test [12] it was > 57.5 µM (inactive). Further, the GI50 in [13] is > 57.5 µM (inactive); in [14], > 37.6 µM (inactive); in test [15], > 58.7 µM (inactive); in test [20] it was > 57.1 µM (inactive); in test [16], > 55.2 µM (inactive); in test [17], > 62.8 µM (inactive). The GI50 in test [18] is > 100 µM (inactive).

For `NN(CC(=O)O)CC(=O)O`, the GI50 in [1], in [2], in test [3], in test [4], in test [5] and in test [6] was > 100 µM (inactive) throughout. The GI50 in test [7] was > 100 µM; in test [8], > 100 µM (inactive); in [9], > 100 µM (inactive); in test [10] it was > 100 µM (inactive); in test [12], > 100 µM (inactive); in test [13], > 100 µM (inactive). Also, the GI50 in test [14], in test [15], in [20], in test [16], in test [17] and in test [18] was > 100 µM (inactive) each time.

Take `COc1cc(/C=C/C(=O)OCCc2ccccc2)ccc1O`: the GI50 was 16.4 µM (inactive) in test [1]; 12.7 µM (inactive) in test [2]; 15.7 µM (inactive) in test [3]; 18.6 µM (inactive) in test [4]; 17.2 µM (inactive) in [6]; 21.7 µM in [7]. Also, the GI50 is 16.6 µM (inactive) in test [8]; 14.5 µM (inactive) in test [9]; 24.7 µM (inactive) in test [19]; 16 µM (inactive) in test [10]; 14.5 µM (inactive) in [12]; 17.7 µM (inactive) in test [13]. Further, the GI50 is 15.9 µM (inactive) in test [14]; 14.1 µM (inactive) in test [15]; 20.5 µM (inactive) in test [20]; 20.1 µM (inactive) in test [16]; 14.7 µM (inactive) in test [17]; 13 µM (inactive) in test [18].

Take `CCOC(=O)c1nnsc1NN`: the GI50 in test [2] is > 100 µM (inactive); in test [3] it was 39.3 µM (inactive); in [4] it was > 100 µM (inactive); in [5], 18.8 µM (inactive); in [6], > 100 µM (inactive); in test [7], > 100 µM. Further, the GI50 was > 100 µM (inactive) in test [8]; 34 µM (inactive) in [9]; > 100 µM (inactive) in [10]; > 100 µM (inactive) in test [11]; 30.1 µM (inactive) in test [12]; 55.5 µM (inactive) in test [13]. In addition, the GI50 in test [14] is 76.2 µM (inactive); in [15], > 100 µM (inactive); in test [17] it was > 100 µM (inactive); in [18], > 100 µM (inactive).

For `O=C1CNCCCN2CCN(CCCNCC(=O)Nc3ccc(cc3)S(=O)(=O)c3ccc(cc3)NC(=O)CNCCCN3CCN(CCCNCC(=O)Nc4ccc(cc4)S(=O)(=O)c4ccc(cc4)N1)CC3)CC2`, the GI50 is 11.9 µM (inactive) in test [1]; 32.9 µM (inactive) in test [2]; 16.3 µM (inactive) in [3]; 19.5 µM (inactive) in test [4]; 1.57 µM (inactive) in [5]; 30.3 µM (inactive) in test [6]. Besides, the GI50 in test [7] was 21 µM; in test [8], 41.4 µM (inactive); in [9], 19.4 µM (inactive); in test [10] it was 24.5 µM (inactive); in [11], 28.6 µM (inactive); in test [12], 21 µM (inactive). The GI50 is 21.5 µM (inactive) in test [13]; 30.1 µM (inactive) in [14]; 21.2 µM (inactive) in [15]; 29.2 µM (inactive) in test [20]; 22.3 µM (inactive) in test [16]; 30 µM (inactive) in test [17]. The GI50 in test [18] was > 47.9 µM (inactive).

For the compound `COc1cc2c(cc1-c1coc3cc(O)ccc3c1=O)OCO2` [CUNEATIN], the GI50 was 23.6 µM (inactive) in test [2]; 15.7 µM (inactive) in test [3]; 23.4 µM (inactive) in test [4]; > 100 µM (inactive) in test [5]; 19.5 µM (inactive) in test [6]; 18.6 µM in test [7]. For the same compound, the GI50 in [8] was 39.6 µM (inactive); in test [9] it was > 100 µM (inactive); in test [10], 21.5 µM (inactive); in test [12], 46.6 µM (inactive); in test [13], 18.7 µM (inactive); in test [14], 24 µM (inactive). Besides, the GI50 in test [15] is 22.9 µM (inactive); in [20], 26.5 µM (inactive); in test [16], > 100 µM (inactive); in test [17], 19.5 µM (inactive); in test [18], 19.8 µM (inactive).

For `COc1ccccc1/C=C\c1cnnc2ccccc12`, the GI50 in test [1] was > 10 µM (inactive); in test [2], > 10 µM (inactive); in [3], > 10 µM (inactive); in test [4], > 10 µM (inactive); in [5], 6.59 µM (inactive); in [6], > 10 µM (inactive). Further, the GI50 in test [7] is > 10 µM; in test [8] it was > 10 µM (inactive); in test [9], 6.24 µM (inactive); in [10], > 10 µM (inactive); in test [11] it was > 10 µM (inactive); in test [12], 3.66 µM (inactive). The GI50 in test [13] is 5.77 µM (inactive); in test [14], > 10 µM (inactive); in [15] it was 8.63 µM (inactive); in [20], > 10 µM (inactive); in [16], 4.7 µM (inactive); in test [17] it was > 10 µM (inactive). Further, in [18], the GI50 is > 10 µM (inactive).

The record behind these values is ChEMBL document CHEMBL1201862, “PubChem BioAssay data set” (2004).
